Laboratory results taken from ChEMBL document CHEMBL2074332, “Molecular and physiological evidence for multifunctionality of carnitine/organic cation transporter OCTN2” (Mol Pharmacol, 2001).
One block for each compound: values may come before it.

Legend:
[1] = target: T1, OCTN2 (organic cation/carnitine transporter 2) (Mus musculus, UniProt Q9Z0E8); assay: TP_TRANSPORTER: inhibition of Carnitine uptake (Carnitine: 0.01 uM, Norepinephrine: 5000 uM) in OCTN2-expressing HEK293 cells; assay type: functional, cell-based; design: scale not given: the % may be the effect or the level left; conditions: human, HEK293 cells that express OCTN2, probe carnitine; read-out: Activity
T1 sequence (Q9Z0E8 whole entry): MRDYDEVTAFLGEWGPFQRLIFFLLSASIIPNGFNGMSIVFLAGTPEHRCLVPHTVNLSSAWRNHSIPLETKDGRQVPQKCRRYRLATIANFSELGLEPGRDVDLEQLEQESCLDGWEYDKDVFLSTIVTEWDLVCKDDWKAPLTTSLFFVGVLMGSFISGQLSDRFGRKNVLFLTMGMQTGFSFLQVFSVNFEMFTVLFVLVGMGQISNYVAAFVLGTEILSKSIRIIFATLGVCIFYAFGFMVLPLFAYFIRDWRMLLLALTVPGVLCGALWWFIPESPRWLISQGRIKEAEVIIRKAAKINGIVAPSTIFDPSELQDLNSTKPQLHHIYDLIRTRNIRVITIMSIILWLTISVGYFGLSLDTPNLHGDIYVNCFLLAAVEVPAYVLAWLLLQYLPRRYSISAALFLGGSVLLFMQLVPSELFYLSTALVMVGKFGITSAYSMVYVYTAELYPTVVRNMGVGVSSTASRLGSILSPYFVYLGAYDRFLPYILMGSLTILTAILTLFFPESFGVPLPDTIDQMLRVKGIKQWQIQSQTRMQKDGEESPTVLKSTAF

[2] = target: T1, OCTN2 (organic cation/carnitine transporter 2); assay: TP_TRANSPORTER: inhibition of Carnitine uptake (Carnitine: 0.01 uM, Procainamide: 500 uM) in OCTN2-expressing HEK293 cells; assay type: functional, cell-based; design: scale not given: the % may be the effect or the level left; conditions: human, HEK293 cells that express OCTN2, probe carnitine; read-out: Activity
[3] = target: T2, Organic cation/carnitine transporter 2 (Mus musculus, UniProt Q9Z0E8); assay: TP_TRANSPORTER: inhibition of Carnitine uptake (Carnitine: 0.01 uM, PAH: 500 uM) in OCTN2-expressing HEK293 cells; assay type: functional, cell-based; conditions: human, hek293, 500 µM
T2 sequence (Q9Z0E8 whole entry): T1 sequence (Q9Z0E8 whole entry)

[4] = target: T2, Organic cation/carnitine transporter 2; assay: TP_TRANSPORTER: uptake in OCTN2-expressing HEK293 cells; assay type: functional, cell-based; conditions: human
[5] = target: T1, OCTN2 (organic cation/carnitine transporter 2); assay: TP_TRANSPORTER: inhibition of Carnitine uptake (Carnitine: 0.01 uM, Quinidine: 500 uM) in OCTN2-expressing HEK293 cells; assay type: functional, cell-based; design: scale not given: the % may be the effect or the level left; conditions: human, HEK293 cells that express OCTN2, probe carnitine; read-out: Activity
[6] = target: T1, OCTN2 (organic cation/carnitine transporter 2); assay: TP_TRANSPORTER: inhibition of Carnitine uptake (Carnitine: 0.01 uM, Diphenhydramine: 500 uM) in OCTN2-expressing HEK293 cells; assay type: functional, cell-based; design: scale not given: the % may be the effect or the level left; conditions: human, HEK293 cells that express OCTN2, probe carnitine; read-out: Activity
[7] = target: T1, OCTN2 (organic cation/carnitine transporter 2); assay: in vitro; conditions: human, HEK293 cells that express OCTN2, probe carnitine
Description: TP_TRANSPORTER: inhibition of Carnitine uptake (Carnitine: 0.01 uM, Dapamine: 5000 uM) in OCTN2-expressing HEK293 cells

[8] = target: T1, OCTN2 (organic cation/carnitine transporter 2); assay: TP_TRANSPORTER: inhibition of Carnitine uptake (Carnitine: 0.01 uM, Verapamil: 500 uM) in OCTN2-expressing HEK293 cells; assay type: functional, cell-based; design: scale not given: the % may be the effect or the level left; conditions: human, HEK293 cells that express OCTN2, probe carnitine; read-out: Activity
[9] = target: T1, OCTN2 (organic cation/carnitine transporter 2); assay: in vitro; conditions: human, HEK293 cells that express OCTN2, probe carnitine; remark: listed apart in the source
Description: TP_TRANSPORTER: inhibition of Carnitine uptake (Carnitine: 0.01 uM, Thiamine: 5000 uM) in OCTN2-expressing HEK293 cells

[10] = target: T2, Organic cation/carnitine transporter 2; assay: TP_TRANSPORTER: inhibition of Carnitine uptake (Carnitine: 0.01 uM, NMN: 500 uM) in OCTN2-expressing HEK293 cells; assay type: functional, cell-based; conditions: human, hek293, 500 µM
[11] = target: T1, OCTN2 (organic cation/carnitine transporter 2); assay: TP_TRANSPORTER: inhibition of Carnitine uptake (Carnitine: 0.01 uM, Acetylcholine: 5000 uM) in OCTN2-expressing HEK293 cells; assay type: functional, cell-based; design: scale not given: the % may be the effect or the level left; conditions: human, HEK293 cells that express OCTN2, probe carnitine; read-out: Activity
[12] = target: T2, Organic cation/carnitine transporter 2; assay: TP_TRANSPORTER: inhibition of Carnitine uptake (Carnitine: 0.01 uM, alpha-KG: 500 uM) in OCTN2-expressing HEK293 cells; assay type: functional, cell-based; conditions: human, hek293, 500 µM
[13] = target: T1, OCTN2 (organic cation/carnitine transporter 2); assay: TP_TRANSPORTER: inhibition of Carnitine uptake (Carnitine: 0.01 uM, MPP+: 500 uM) in OCTN2-expressing HEK293 cells; assay type: functional, cell-based; design: scale not given: the % may be the effect or the level left; conditions: human, HEK293 cells that express OCTN2, probe carnitine; read-out: Activity
[14] = target: T1, OCTN2 (organic cation/carnitine transporter 2); assay: in vitro; conditions: human, HEK293 cells that express OCTN2, probe carnitine; remark: listed apart in the source
Description: TP_TRANSPORTER: inhibition of Carnitine uptake (Carnitine: 0.01 uM, TEA: 500 uM) in OCTN2-expressing HEK293 cells

[15] = target: T1, OCTN2 (organic cation/carnitine transporter 2); assay: TP_TRANSPORTER: inhibition of Carnitine uptake (Carnitine: 0.01 uM, Pyrilamine: 500 uM) in OCTN2-expressing HEK293 cells; assay type: functional, cell-based; design: scale not given: the % may be the effect or the level left; conditions: human, HEK293 cells that express OCTN2, probe carnitine; read-out: Activity
[16] = target: T1, OCTN2 (organic cation/carnitine transporter 2); assay: TP_TRANSPORTER: inhibition of Carnitine uptake (Carnitine: 0.01 uM, Lidocaine: 500 uM) in OCTN2-expressing HEK293 cells; assay type: functional, cell-based; design: scale not given: the % may be the effect or the level left; conditions: human, HEK293 cells that express OCTN2, probe carnitine; read-out: Activity
[17] = target: T1, OCTN2 (organic cation/carnitine transporter 2); assay: TP_TRANSPORTER: inhibition of Carnitine uptake (Carnitine: 0.01 uM, Acetyl-beta-methylcholine: 500 uM) in OCTN2-expressing HEK293 cells; assay type: functional, cell-based; design: scale not given: the % may be the effect or the level left; conditions: human, HEK293 cells that express OCTN2, probe carnitine; read-out: Activity
[18] = target: T1, OCTN2 (organic cation/carnitine transporter 2); assay: TP_TRANSPORTER: inhibition of Carnitine uptake (Carnitine: 0.01 uM, Serotonin: 5000 uM) in OCTN2-expressing HEK293 cells; assay type: functional, cell-based; design: scale not given: the % may be the effect or the level left; conditions: human, HEK293 cells that express OCTN2, probe carnitine; read-out: Activity
[19] = target: T1, OCTN2 (organic cation/carnitine transporter 2); assay: in vitro; conditions: human, HEK293 cells that express OCTN2, probe carnitine; remark: listed apart in the source
Description: TP_TRANSPORTER: inhibition of Carnitine uptake (Carnitine: 0.01 uM, Choline: 500 uM) in OCTN2-expressing HEK293 cells

[20] = target: T2, Organic cation/carnitine transporter 2; assay: TP_TRANSPORTER: inhibition of Carnitine uptake (Carnitine: 0.01 uM, Guanidine: 500 uM) in OCTN2-expressing HEK293 cells; assay type: functional, cell-based; conditions: human, hek293, 500 µM

SMILES: Nc1ccc(C(=O)NCC(=O)O)cc1 [AMINOHIPPURIC ACID]
- Activity [3]: is not an inhibitor [-]
- Activity [4]: is not a substrate [-]

SMILES: CN(C)CCOC(c1ccccc1)c1ccccc1 [DIPHENHYDRAMINE]
- activity at 500 µM [6]: 43.6%

SMILES: NCCc1ccc(O)c(O)c1 [DOPAMINE]
- activity at 5000 µM [7]: 70.9%

SMILES: CC(=O)O[C@H](CC(=O)[O-])C[N+](C)(C)C [ACETYLCARNITINE]
- Activity [4]: substrate [+]

SMILES: CC(=O)OCC[N+](C)(C)C [ACETYLCHOLINE]
- activity at 5000 µM [11]: 34.2%

SMILES: O=C(O)CCC(=O)C(=O)O [ALPHA-KETOGLUTARIC ACID]
- Activity [12]: is not an inhibitor [-]

SMILES: C[n+]1ccc(-c2ccccc2)cc1
- activity at 500 µM [13]: 72.9%
- Activity [4]: substrate [+]

SMILES: CCN(CC)CC(=O)Nc1c(C)cccc1C [LIDOCAINE]
- activity at 500 µM [16]: 57.1%

SMILES: CC(=O)OC(C)C[N+](C)(C)C (centres undefined)
- activity at 500 µM [17]: 82.5%

SMILES: NCCc1c[nH]c2ccc(O)cc12 [SEROTONIN]
- activity at 5000 µM [18]: 51.3%

SMILES: C[N+](C)(C)CCO [CHOLINE]
- activity at 500 µM [19]: 74.6%

SMILES: N=C(N)N [GUANIDINE]
- Activity [20]: is not an inhibitor [-]

More lines, now with the values ahead:

- activity at 5000 µM [1]: 70.9%
SMILES: NC[C@H](O)c1ccc(O)c(O)c1 [NOREPINEPHRINE]

- activity at 500 µM [2]: 81.3%
SMILES: CCN(CC)CCNC(=O)c1ccc(N)cc1 [PROCAINAMIDE]

- activity at 500 µM [5]: 6.1%
SMILES: C=C[C@H]1C[N@@]2CC[C@H]1C[C@@H]2[C@@H](O)c1ccnc2ccc(OC)cc12 [QUINIDINE]

- activity at 500 µM [8]: 1.3%
- Activity [4]: substrate [+]
SMILES: COc1ccc(CCN(C)CCCC(C#N)(c2ccc(OC)c(OC)c2)C(C)C)cc1OC (centres undefined) [VERAPAMIL]

- activity at 5000 µM [9]: 65.9%
SMILES: Cc1ncc(C[n+]2csc(CCO)c2C)c(N)n1 [THIAMINE ION]

- Activity [10]: is not an inhibitor [-]
SMILES: CNC(=O)c1cccnc1 [NICOTINYL METHYLAMIDE]

- activity at 500 µM [14]: 15.4%
SMILES: CC[N+](CC)(CC)CC [TETRYLAMMONIUM]

- activity at 500 µM [15]: 36.3%
- Activity [4]: substrate [+]
SMILES: COc1ccc(CN(CCN(C)C)c2ccccn2)cc1 [PYRILAMINE]
